Consider seven molecules from patent US11078166B2, “Triazole conjugated ureas, thioureas, carbamates, and reversed carbamates for PSMA-targeted imaging agents and uses thereof” (THE JOHNS HOPKINS UNIVERSITY, priority 2015, dated 2021).

Series [1] has as its target T1, PSMA (Homo sapiens, UniProt Q04609).
T1 construct: endogenous in cells; host or cells: LNCaP cell lysate
The note with it: from Chen et al. 2008 and 2011; read-out: Ki value, PSMA (for comparison); cited from earlier work.

Series [2] concerns the target T1, PSMA. The series can be described thus: NAALADase assay (fluorescence-based Amplex Red glutamic acid assay), PSMA inhibition. It counts as biochemical. The note with it: for Ki: LNCaP cell lysates, 4 μM NAAG, Cheng-Prusoff conversion. The protocol: NAALADase Assay (Kozikowski et al., J. Med. Chem. 2004). The binding affinities of compounds YC-88, YC-71 and YC-XY-01 were tested with an established protocol. Briefly, cell lysates of Lymph Node Carcinoma of the Prostate (LNCaP) cell extracts (25 μL) were incubated with the inhibitor (12.5 μL) in the presence of 4 μM N-acetylaspartylglutamate (NAAG) (12.5 μL) at 37° C. for 120 min. The amount of the glutamate released by NAAG hydrolysis was measured by incubating with a working solution (50 μL) of the Amplex Red Glutamic Acid Kit (Life Technologies, Grand Island, N.Y.) at 37° C. for 60 min. Fluorescence was measured with a VICTOR^3V multilabel plate reader (Perkin Elmer Inc., Waltham, Mass.) with excitation at 490 nm and emission at 642 nm. Inhibition curves were determined using semi-log plots and IC50 values were determined at the concentration at which enzyme activity was inhibited by 50%. Assays were performed in triplicate with the entire inhibition study being repeated at least once to confirm affinity and mode of inhibition. Enzyme inhibitory constants (Ki values) were generated using the Cheng-Prusoff conversion. […]. Data analysis was performed using GraphPad Prism version 4.00 for Windows (GraphPad Software, San Diego, Calif.).
PSMA Inhibition Assay. The PSMA binding affinity of YC-88 were determined using a modification of the Amplex Red glutamic acid assay (Chen et al., Biochem. Biophys. Res. Commun. 2009).

The nature of series [3]: Lipophilicity, octanol-water partition coefficient by shake-flask method. The note with it: pH 7.4. It counts as physicochemical. The method, then:
Lipophilicity Determination. Octanol-water partition coefficients [log P (pH 7.4) values] were determined according to a literature procedure (Banerjee et al., J. Med. Chem. 2010). […] After vigorously shaking the mixture, it was centrifuged at 3,000 rpm for 5 min. Aliquots were removed from the two phases, and the radioactivity was measured in a 1282 Compugamma CS γ-counter, (LKB, Wallac, Turku, Finland).
Lipophilicity. Octanol-water partition coefficient (log P) values were measured by the shake-flask method using 1-octanol and PBS (pH 7.4). The log P of [^18F]YC-88 at pH 7.4 was −3.91.

Series [4] is described as follows: Radiation dosimetry: kidney biological clearance half-life and AUC from % ID/g data. It counts as in vivo, NOD-SCID mice. The note with it: for AUC in kidneys / Biological half-life in kidneys: single exponential fit of kidney % ID/g. The text has this: Radiation Dosimetry. […] The simulation analysis and modeling software package SAAM II (The Epsilon Group, Charlottesville, Va.) was used to perform the fits.

Entries after “also recorded” stand apart in the source; their conditions may differ. Like-named read-outs stand apart in the source and are kept apart here.

T1 sequence (Q04609 whole entry): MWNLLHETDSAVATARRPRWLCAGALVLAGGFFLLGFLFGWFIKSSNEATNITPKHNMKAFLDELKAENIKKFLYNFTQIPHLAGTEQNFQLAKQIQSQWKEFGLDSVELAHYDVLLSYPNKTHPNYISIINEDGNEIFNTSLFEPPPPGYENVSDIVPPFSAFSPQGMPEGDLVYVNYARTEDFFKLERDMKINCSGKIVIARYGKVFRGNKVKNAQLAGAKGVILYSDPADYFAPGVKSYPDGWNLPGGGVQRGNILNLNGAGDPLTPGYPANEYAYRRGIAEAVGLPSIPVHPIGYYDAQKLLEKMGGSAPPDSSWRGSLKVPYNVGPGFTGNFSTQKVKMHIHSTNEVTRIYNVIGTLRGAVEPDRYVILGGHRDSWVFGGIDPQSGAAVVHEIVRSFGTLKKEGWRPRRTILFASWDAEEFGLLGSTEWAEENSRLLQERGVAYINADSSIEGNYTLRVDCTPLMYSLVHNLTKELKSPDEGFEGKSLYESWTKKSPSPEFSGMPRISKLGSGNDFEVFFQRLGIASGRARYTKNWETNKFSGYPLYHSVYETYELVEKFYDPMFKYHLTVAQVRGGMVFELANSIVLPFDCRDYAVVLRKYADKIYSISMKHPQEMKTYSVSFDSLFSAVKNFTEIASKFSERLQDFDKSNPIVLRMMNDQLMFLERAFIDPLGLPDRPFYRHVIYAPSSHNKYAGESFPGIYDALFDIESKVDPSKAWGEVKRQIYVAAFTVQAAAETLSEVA

On to `O=C(O)CC[C@H](NC(=O)N[C@@H](CSCc1ccc(F)cc1)C(=O)O)C(=O)O` [DCFBC], for which the Ki in series [1] was 0.44 nM.
As to `O=C(O)CCC(NC(=O)NC(CCCCNC(=O)c1ccc(F)cc1)C(=O)O)C(=O)O` (stereo not shown) [DCFBzL], the Ki in series [1] is 0.19 nM.
Take `O=C(O)CCC(NC(=O)NC(CCCCNC(=O)CCCCCCC(=O)NC(CCCCNC(=O)CCc1cn(CCF)nn1)C(=O)O)C(=O)O)C(=O)O` (stereo not shown) [YC-71]: in series [2], the “Binding affinity to PSMA (in words)” value was “high binding affinity to PSMA” and the affinity, expressed as Ki, was 0.6 nM.
Turning to `O=C(O)CCC(NC(=O)NC(CCCCNC(=O)CCc1cn(CCF)nn1)C(=O)O)C(=O)O` (stereo not shown) [YC-88, 2-[3-(1-Carboxy-5-{3-[1-(2-fluoroethyl)-1H-1,2,3-triazol-yl]propanamido}pentyl)ureido]pentanedioic Acid], in series [2], the “Binding affinity to PSMA (in words)” value is on record as “high affinity for PSMA; also recorded: high binding affinity to PSMA” and the Ki amounted to 12.9 nM.
With `O=C(O)CC[C@H](OC(=O)N[C@@H](CCCCNC(=O)CCc1cn(CCF)nn1)C(=O)O)C(=O)O` [YC-XY-01, (S)-2-((((S)-1-carboxy-5-(3-(1-(2-fluoroethyl)-1H-1,2,3-triazol-4-yl)propanamido)pentyl)carbamoyl)oxy)pentanedioic acid], in series [2], the “Binding affinity to PSMA (in words)” value is on record as “high binding affinity to PSMA” and the Ki worked out at 473 nM.
With `O=C(O)CCC(NC(=O)NC(CCCCNC(=O)c1ccc([18F])nc1)C(=O)O)C(=O)O` (stereo not shown) [[^18F]DCFPyL, 2-(3-{1-carboxy-5-[(6-[^18F]fluoropyridine-3-carbonyl)-amino]-pentyl}-ureido)-pentanedioic acid, reference compound], the “log P (octanol-water partition coefficient)” value in series [3] (1-octanol and PBS) was −3.27. Further, in series [4], the AUC in kidneys stood at 340.74 % ID/g-h and the “Biological half-life in kidneys” value worked out at 1.20 h.
`O=C(O)CC[C@H](NC(=O)N[C@@H](CCCCNC(=O)CCc1cn(CC[18F])nn1)C(=O)O)C(=O)O` [[^18F]YC-88, 2-[3-(1-carboxy-5-{3-[1-(2-[^18F]fluoroethyl)-1H-1,2,3-triazol-yl]propanamido}pentyl)ureido]-pentanedioic acid]: the logP in series [3] was -3.91. In addition, in series [4] (mouse, in vivo), the “AUC ratio (agent/YC-88) in kidneys” value is given as 1 and the “Kidney absorbed dose, decrease compared to [^18F]DCFPyL” value is about 5 fold. In series [4], the AUC in kidneys came to 70.7 % ID/g-h and the “Biological half-life in kidneys” value was 1.52 h.
